Measurements published in PubChem BioAssay (NCI).
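In this assay, cells in 96-well plates receive the compound at five concentrations for 48 hours. Endpoints are linearly interpolated between the surrounding concentrations. GI50 is the concentration that inhibits growth by half. TGI: total growth inhibition.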

Key:
Assay in all cases: NCI-60 cell line screen, 48 h
LOX IMVI melanoma = tested on: LOX IMVI melanoma
RXF 393 renal = tested on: RXF 393 renal
HOP-62 NSCLC = tested on: HOP-62 NSCLC
MOLT-4 leukemia = tested on: MOLT-4 leukemia
COLO 205 colon = tested on: COLO 205 colon
NCI-H460 lung = tested on: NCI-H460 lung
UACC-257 melanoma = tested on: UACC-257 melanoma
IGROV1 ovarian = tested on: IGROV1 ovarian
HT29 colon = tested on: HT29 colon
T-47D breast = tested on: T-47D breast

SMILES | TGI (LOX IMVI melanoma) | TGI (RXF 393 renal) | TGI (HOP-62 NSCLC) | TGI (MOLT-4 leukemia) | TGI (COLO 205 colon) | TGI (NCI-H460 lung) | TGI (UACC-257 melanoma) | TGI (IGROV1 ovarian) | TGI (HT29 colon) | GI50 (LOX IMVI melanoma) | GI50 (RXF 393 renal) | GI50 (HOP-62 NSCLC) | GI50 (MOLT-4 leukemia) | GI50 (COLO 205 colon) | GI50 (NCI-H460 lung) | GI50 (T-47D breast) | TGI (T-47D breast) | GI50 (IGROV1 ovarian) | GI50 (HT29 colon) | GI50 (UACC-257 melanoma)
COC(=O)C(Cc1nc2ccc(Cl)cc2[nH]c1=O)/C(=N/NC(N)=O)C(=O)Nc1ccc(Cl)cc1 (centres undefined) | > 100 µM | > 100 µM | > 100 µM | > 100 µM | > 100 µM | > 100 µM | > 100 µM | > 100 µM | > 100 µM |  |  |  |  |  |  |  |  |  |  | 
O=C1C2c3[nH]c4ccccc4c3[C@@H]3CCCCC3C2C(=O)N1c1ccccc1 (some centres undefined) | 29.8 µM | 32.7 µM |  | 62.9 µM | 33.6 µM | 31.9 µM |  | 74.8 µM | 37 µM |  |  |  |  |  |  |  |  |  |  | 
Cc1nc2n(c(=O)c1CCN1CCC(c3noc4cc(F)ccc34)CC1)CCCC2 | > 50 µM | > 50 µM | > 50 µM | > 50 µM | > 50 µM | > 50 µM |  | > 50 µM | > 50 µM | > 50 µM | > 50 µM | > 50 µM | > 50 µM | > 50 µM | > 50 µM | > 50 µM | > 50 µM | > 50 µM | > 50 µM | 
Cc1ccc2[nH]c3c(ncc4[nH]c5ccccc5c43)c2c1 | 31.6 µM | 27.2 µM | > 10 µM | 35.2 µM | 34.3 µM | 30.6 µM | 33.2 µM | 29.6 µM | 24 µM |  |  |  |  |  |  |  |  |  |  | 
OC(c1ccccn1)C1CNc2ccccc21 (centres undefined) | > 100 µM | > 100 µM | > 100 µM | > 100 µM | > 100 µM | > 100 µM | > 100 µM | > 100 µM | > 100 µM |  |  |  |  |  |  |  |  |  |  | 
N#CC1(C=O)c2ccccc2C=CN1C(=O)c1ccccc1 (centres undefined) |  | 53.8 µM |  | 44.9 µM | > 100 µM | > 100 µM | > 100 µM | > 100 µM | > 100 µM |  |  |  |  |  |  |  |  |  |  | 
COC12CC(=O)C(C(C)=O)=C(O)C1(C)c1c(OC(C)=O)c(C)c(O)c(C(C)=O)c1O2 (centres undefined) | > 100 µM | 62.5 µM | 95.8 µM | > 100 µM |  | > 100 µM | 91.4 µM | > 100 µM | 78.7 µM |  |  |  |  |  |  |  |  |  |  | 
CCC[CH2][Sn]([CH2]CCC)([O]C(=O)C1CCC(=O)N1)[O]C(=O)C1CCC(=O)N1 (centres undefined) | 0.328 µM | 0.473 µM | 2.04 µM | 0.755 µM | 1.16 µM | 2.53 µM | 0.338 µM | 2.48 µM | 2.06 µM | 0.152 µM | 0.3 µM | 0.619 µM | 0.245 µM | 0.363 µM | 1.27 µM |  |  | 1.1 µM | 0.588 µM | 0.159 µM
c1ccc(COCC2OC3c4ccccc4COC3C2OCc2ccccc2)cc1 (centres undefined) |  | > 100 µM |  | > 100 µM | > 100 µM | > 100 µM | > 100 µM | > 100 µM | > 100 µM |  |  |  |  |  |  |  |  |  |  | 
Cn1c2c(c3ccccc31)CCN(CCCCN1CCN(c3cccc(Cl)c3)CC1)C2=O |  |  | 30.7 µM | 31.6 µM | 11.2 µM | 28 µM | 19.8 µM | 47 µM | 10.5 µM |  |  |  |  |  |  |  |  |  |  | 
